Assays:
Format in all cases: functional
NCI-H460 = test: Growth inhibition of human NCI-H460 cells assessed as cell growth at 5X10'-8 M after 48 hrs by sulforhodamine B assay; conditions: NCI-H460, 48 h, read-out: Activity
OVCAR-4 [1] = test: Growth inhibition of human OVCAR4 cells assessed as cell growth at 5X10'-6 M after 48 hrs by sulforhodamine B assay; conditions: OVCAR-4, 48 h, read-out: Activity
UO-31 = test: Growth inhibition of human UO31 cells assessed as cell growth at 5X10'-6 M after 48 hrs by sulforhodamine B assay; conditions: UO-31, 48 h, read-out: Activity
Malme-3M = test: Growth inhibition of human MALME-3M cells assessed as cell growth at 3X10'-5 M after 48 hrs by sulforhodamine B assay; conditions: read-out: Activity
BT-549 = test: Growth inhibition of human BT549 cells assessed as cell growth at 3X10'-7 M after 48 hrs by sulforhodamine B assay; conditions: BT-549, 48 h, read-out: Activity
[2] = Growth inhibition of human HCC2998 cells assessed as cell growth at 3X10'-5 M after 48 hrs by sulforhodamine B assay; conditions: HCC 2998, 48 h, read-out: Activity
UACC-62 = test: Growth inhibition of human UACC62 cells assessed as cell growth at 3X10'-9 M after 48 hrs by sulforhodamine B assay; conditions: UACC-62, 48 h, read-out: Activity
SNB-19 = test: Growth inhibition of human SNB19 cells assessed as cell growth at 3X10'-6 M after 48 hrs by sulforhodamine B assay; conditions: SNB-19, 48 h, read-out: Activity
HOP-62 = test: Growth inhibition of human HOP62 cells assessed as cell growth at 3X10'-6 M after 48 hrs by sulforhodamine B assay; conditions: HOP-62, 48 h, read-out: Activity
TK-10 = test: Growth inhibition of human TK10 cells assessed as cell growth at 3X10'-9 M after 48 hrs by sulforhodamine B assay; conditions: TK-10, 48 h, read-out: Activity
KM12 [3] = test: Growth inhibition of human KM12 cells assessed as cell growth at 3X10'-8 M after 48 hrs by sulforhodamine B assay; conditions: KM12, 48 h, read-out: Activity
[4] = Growth inhibition of human Hs 578T cells assessed as cell growth at 3X10'-6 M after 48 hrs by sulforhodamine B assay; conditions: read-out: Activity
MCF7 = test: Growth inhibition of human MCF7 cells assessed as cell growth at 3X10'-5 M after 48 hrs by sulforhodamine B assay; conditions: MCF7, 48 h, read-out: Activity
SW-620 = test: Growth inhibition of human SW620 cells assessed as cell growth at 3X10'-7 M after 48 hrs by sulforhodamine B assay; conditions: SW-620, 48 h, read-out: Activity
HCT-116 = test: Growth inhibition of human HCT116 cells assessed as cell growth at 3X10'-9 M after 48 hrs by sulforhodamine B assay; conditions: HCT-116, 48 h, read-out: Activity
ACHN = test: Growth inhibition of human ACHN cells assessed as cell growth at 3X10'-8 M after 48 hrs by sulforhodamine B assay; conditions: read-out: Activity
NCI-H23 = test: Growth inhibition of human NCI-H23 cells assessed as cell growth at 3X10'-5 M after 48 hrs by sulforhodamine B assay; conditions: NCI-H23, 48 h, read-out: Activity
SK-OV-3 [5] = test: Growth inhibition of human SKOV3 cells assessed as cell growth at 3X10'-5 M after 48 hrs by sulforhodamine B assay; conditions: SK-OV-3, 48 h, read-out: Activity
SK-OV-3 [6] = test: Growth inhibition of human SKOV3 cells assessed as cell growth at 3X10'-7 M after 48 hrs by sulforhodamine B assay; conditions: SK-OV-3, 48 h, read-out: Activity
OVCAR-5 [7] = test: Growth inhibition of human OVCAR5 cells assessed as cell growth at 3X10'-6 M after 48 hrs by sulforhodamine B assay; conditions: OVCAR-5, 48 h, read-out: Activity
MOLT-4 = test: Growth inhibition of human MOLT4 cells assessed as cell growth at 3X10'-7 M after 48 hrs by sulforhodamine B assay; conditions: MOLT-4, 48 h, read-out: Activity
OVCAR-5 [8] = test: Growth inhibition of human OVCAR5 cells assessed as cell growth at 3X10'-8 M after 48 hrs by sulforhodamine B assay; conditions: OVCAR-5, 48 h, read-out: Activity
[9] = Growth inhibition of human NCI-ADR-RES cells assessed as cell growth at 3X10'-9 M after 48 hrs by sulforhodamine B assay; conditions: read-out: Activity
OVCAR-3 = test: Growth inhibition of human OVCAR3 cells assessed as cell growth at 3X10'-9 M after 48 hrs by sulforhodamine B assay; conditions: OVCAR-3, 48 h, read-out: Activity
UACC-257 = test: Growth inhibition of human UACC257 cells assessed as cell growth at 3X10'-7 M after 48 hrs by sulforhodamine B assay; conditions: UACC-257, 48 h, read-out: Activity
OVCAR-5 [10] = test: Growth inhibition of human OVCAR5 cells assessed as cell growth at 3X10'-9 M after 48 hrs by sulforhodamine B assay; conditions: OVCAR-5, 48 h, read-out: Activity
KM12 [11] = test: Growth inhibition of human KM12 cells assessed as cell growth at 3X10'-5 M after 48 hrs by sulforhodamine B assay; conditions: KM12, 48 h, read-out: Activity
[12] = Growth inhibition of human HCC2998 cells assessed as cell growth at 3X10'-9 M after 48 hrs by sulforhodamine B assay; conditions: HCC 2998, 48 h, read-out: Activity
OVCAR-4 [13] = test: Growth inhibition of human OVCAR4 cells assessed as cell growth at 3X10'-6 M after 48 hrs by sulforhodamine B assay; conditions: OVCAR-4, 48 h, read-out: Activity
SK-MEL-2 = test: Growth inhibition of human SK-MEL-2 cells assessed as cell growth at 3X10'-9 M after 48 hrs by sulforhodamine B assay; conditions: SK-MEL-2, 48 h, read-out: Activity
K562 = test: Growth inhibition of human K562 cells assessed as cell growth at 3X10'-7 M after 48 hrs by sulforhodamine B assay; conditions: K562, 48 h, read-out: Activity
NCI-H226 = test: Growth inhibition of human NCI-H226 cells assessed as cell growth at 3X10'-7 M after 48 hrs by sulforhodamine B assay; conditions: NCI-H226, 48 h, read-out: Activity
HCT-15 = test: Growth inhibition of human HCT15 cells assessed as cell growth at 3X10'-6 M after 48 hrs by sulforhodamine B assay; conditions: HCT-15, 48 h, read-out: Activity
LOX IMVI = test: Growth inhibition of human LOXIMVI cells assessed as cell growth at 3X10'-7 M after 48 hrs by sulforhodamine B assay; conditions: read-out: Activity
NCI-H322M = test: Growth inhibition of human NCI-H322M cells assessed as cell growth at 3X10'-8 M after 48 hrs by sulforhodamine B assay; conditions: read-out: Activity

COc1cc(-c2nn(-c3cccc(NC(=O)Nc4ccc(Cl)c(Cl)c4)c3)cc2-c2ccncc2)ccc1Cl
growth at 0.05 µM (NCI-H460): 102% | growth at 5 µM (OVCAR-4 [1]): 6%

COc1cc(-c2nn(-c3cccc(NC(=O)Nc4cccc(C(F)(F)F)c4)c3)cc2-c2ccncc2)ccc1Cl
growth at 0.05 µM (NCI-H460): 102% | growth at 5 µM (OVCAR-4 [1]): 6% | growth at 5 µM (UO-31): -15%

COc1cc(-c2nn(-c3cccc(NC(=O)Nc4ccc(Cl)c(C(F)(F)F)c4)c3)cc2-c2ccncc2)ccc1Cl
growth at 30 µM (Malme-3M): -47% | growth at 0.3 µM (BT-549): 109% | growth at 30 µM [2]: -48% | growth at 0.003 µM (UACC-62): 95% | growth at 3 µM (SNB-19): 19% | growth at 3 µM (HOP-62): 22% | growth at 0.003 µM (TK-10): 101% | growth at 0.03 µM (KM12 [3]): 101% | growth at 3 µM [4]: 25% | growth at 30 µM (MCF7): 2% | growth at 0.3 µM (SW-620): 100% | growth at 0.003 µM (HCT-116): 102% | growth at 0.03 µM (ACHN): 98% | growth at 30 µM (NCI-H23): -16% | growth at 30 µM (SK-OV-3 [5]): -14% | growth at 0.3 µM (SK-OV-3 [6]): 103% | growth at 3 µM (OVCAR-5 [7]): 49% | growth at 0.3 µM (MOLT-4): 90% | growth at 0.03 µM (OVCAR-5 [8]): 89% | growth at 0.003 µM [9]: 104% | growth at 0.003 µM (OVCAR-3): 105% | growth at 0.3 µM (UACC-257): 91% | growth at 0.003 µM (OVCAR-5 [10]): 99% | growth at 30 µM (KM12 [11]): -79% | growth at 0.003 µM [12]: 102% | growth at 3 µM (OVCAR-4 [13]): 19% | growth at 0.003 µM (SK-MEL-2): 111% | growth at 0.3 µM (K562): 100% | growth at 0.3 µM (NCI-H226): 85% | growth at 3 µM (HCT-15): 18% | growth at 0.3 µM (LOX IMVI): 97% | growth at 0.03 µM (NCI-H322M): 93%

COc1cc(-c2nn(-c3cccc(NC(=O)Nc4cc(C(F)(F)F)cc(C(F)(F)F)c4)c3)cc2-c2ccncc2)ccc1Cl
growth at 0.05 µM (NCI-H460): 100% | growth at 5 µM (OVCAR-4 [1]): 8% | growth at 5 µM (UO-31): -90%

COc1cc(-c2nn(-c3cccc(NC(=O)c4cccc(C(F)(F)F)c4)c3)cc2-c2ccncc2)ccc1Cl
growth at 0.05 µM (NCI-H460): 100% | growth at 5 µM (OVCAR-4 [1]): 34% | growth at 5 µM (UO-31): 20%

From ChEMBL document CHEMBL2440076, “New triarylpyrazoles as broad-spectrum anticancer agents: design, synthesis, and biological evaluation” (Eur J Med Chem, 2013)
